Consider 7 compounds from US7670604B2, “Vimentin directed diagnostics and therapeutics for multidrug resistant neoplastic disease” (Aurelium Biopharma, Inc., priority 2002, dated 2010).

Entries after “also recorded” stand apart in the source; their conditions may differ.

One data set has as its system lysosomal hydrolases. As to conditions: cited from earlier work.
For data set [1], the system named is antigen-positive E3 cell line. Conditions: Krauer et al. 1992, read-out: IC50 (cytotoxicities); cited from earlier work.
For data set [2] the following is noted: Rowland et al. 1993; cited from earlier work.
In a further data set the test system is E3 target cells. Conditions: Pietersz et al. 1988; cited from earlier work.
The test system of a further data set is MDA cells. As to the kind of experiment: Induction of surface exposure of vimentin by drugs, intact cell radioimmunoassay. Type of data set: cell-based. As to conditions: 1 or 10 μM taxol, 1 or 10 μM doxorubicin, 0.1 or 1 μM mitoxanthrone, 12 to 16 hours.
Data set [3] has as its system hematological tumor cells. As to the kind of experiment: Vimentin vaccination of mice injected with hematological tumor cells. The data set is classed as in vivo. Conditions: mice vaccinated prior to injection of the tumor cells.

For the compound `COc1cccc2c1C(=O)c1c(O)c3c(c(O)c1C2=O)CC(O)(C(C)=O)CC3OC1CC(NC(=O)C(CC(C)C)NC(=O)C(C)N)C(O)C(C)O1` (stereo not drawn) [Ala-Leu-Dau derivative], the “time for conversion back to the free drug” value with lysosomal hydrolases is given as 2 h.
Regarding `O=c1[nH]c(=O)n([C@H]2C[C@H](O)[C@@H](CO)O2)cc1F` [FUDR, 5-fluoro-2′-deoxyuridine], the IC50 in data set [1] was 0.4 nM.
Regarding `CC(=O)[C@]1(O)Cc2c(O)c3c(c(O)c2[C@@H](O[C@H]2C[C@H](N)[C@H](O)[C@H](C)O2)C1)C(=O)c1ccccc1C3=O` [Ida, Idarubicin], the activities in data set [2] is given as 12 nM. Besides, the IC50 in the data set with E3 target cells is 120 nM.
In the case of `COc1cccc2c1C(=O)c1c(O)c3c(c(O)c1C2=O)C[C@@](O)(C(=O)CO)C[C@@H]3O[C@H]1C[C@H](N)[C@H](O)[C@H](C)O1` [doxorubicin], the “induction of surface exposure of vimentin” value in the data set with MDA cells is recorded as “slight induction”.
Consider `O=C1c2c(O)ccc(O)c2C(=O)c2c(NCCNCCO)ccc(NCCNCCO)c21` [mitoxanthrone], for which the “induction of surface exposure of vimentin” value in the data set on MDA cells was “slight induction; also recorded: most significant effect”.
The same measure, in the same setting: next, `CC(=O)O[C@H]1C(=O)[C@@]2(C)[C@H]([C@H](OC(=O)c3ccccc3)[C@]3(O)C[C@H](OC(=O)[C@H](O)[C@@H](NC(=O)c4ccccc4)c4ccccc4)C(C)=C1C3(C)C)[C@]1(OC(C)=O)CO[C@@H]1C[C@@H]2O` [taxol]: “slight induction”.
On to “vimentin: purified full length murine vimentin protein used as vaccine antigen, may be given with adjuvant”, for which, in data set [3], the “tumor size versus mice not vaccinated” value is given as “smaller”.
